ChEMBL document CHEMBL4507296 (2021)
The source made the active and inactive calls. The calls are words filed in the database; no cut-off is given here.

What was measured:
[1] = target: Calcium/calmodulin-dependent protein kinase type II subunit delta (Homo sapiens) (UniProt Q13557); conditions: Compound concentration 1000.0 nM
[2] = target: Interleukin-1 receptor-associated kinase 1 (Homo sapiens) (UniProt P51617); conditions: Compound concentration 1000.0 nM
[3] = target: Glycogen synthase kinase-3 alpha (Homo sapiens) (UniProt P49840); conditions: Compound concentration 1000.0 nM
[4] = target: Phosphatidylinositol 3-kinase C2 domain-containing subunit gamma (Homo sapiens) (UniProt O75747); conditions: Compound concentration 1000.0 nM
[5] = target: Mitogen-activated protein kinase kinase kinase 10 (Homo sapiens) (UniProt Q02779); conditions: Compound concentration 1000.0 nM
[6] = target: Cyclin-dependent kinase-like 5 (Homo sapiens) (UniProt O76039); conditions: Compound concentration 1000.0 nM
[7] = target: NT-3 growth factor receptor (Homo sapiens) (UniProt Q16288); conditions: Compound concentration 1000.0 nM
[8] = target: Serine/threonine-protein kinase SIK2 (Homo sapiens) (UniProt Q9H0K1); conditions: Compound concentration 1000.0 nM
[9] = tested on: ALK tyrosine kinase receptor (Homo sapiens), Q9UM73 [L1196M]; conditions: Compound concentration 1000.0 nM
[10] = target: Serine/threonine-protein kinase Nek11 (Homo sapiens) (UniProt Q8NG66); conditions: Compound concentration 1000.0 nM
[11] = target: Mitogen-activated protein kinase 1 (Homo sapiens) (UniProt P28482); conditions: Compound concentration 1000.0 nM
[12] = target: MAP/microtubule affinity-regulating kinase 4 (Homo sapiens) (UniProt Q96L34); conditions: Compound concentration 1000.0 nM
[13] = target: Serine/threonine-protein kinase 25 (Homo sapiens) (UniProt O00506); conditions: Compound concentration 1000.0 nM
[14] = target: Transient receptor potential cation channel subfamily M member 8 (Homo sapiens, UniProt Q7Z2W7); assay: Voltage activation at 12 °C
[15] = target: Serine/threonine-protein kinase Sgk3 (Homo sapiens) (UniProt Q96BR1); conditions: Compound concentration 1000.0 nM
[16] = target: Tyrosine-protein kinase BTK (Homo sapiens) (UniProt Q06187); conditions: Compound concentration 1000.0 nM
[17] = target: Calcium/calmodulin-dependent protein kinase kinase 2 (Homo sapiens) (UniProt Q96RR4); conditions: Compound concentration 1000.0 nM
[18] = target: Serine/threonine-protein kinase pim-3 (Homo sapiens) (UniProt Q86V86); conditions: Compound concentration 1000.0 nM
[19] = target: Calcium/calmodulin-dependent protein kinase type 1G (Homo sapiens) (UniProt Q96NX5); conditions: Compound concentration 1000.0 nM
[20] = target: Substance-P receptor (Homo sapiens) (UniProt P25103); assay: Neurokinin 1 (human) CEREP ligand profiling; conditions: Compound concentration 10.0 uM
[21] = target: MAP kinase-activated protein kinase 2 (Homo sapiens) (UniProt P49137); conditions: Compound concentration 1000.0 nM
[22] = target: Histamine H2 receptor (Homo sapiens) (UniProt P25021); conditions: Compound concentration 10.0 uM
[23] = target: Mitogen-activated protein kinase kinase kinase kinase 4 (Homo sapiens) (UniProt O95819); conditions: Compound concentration 1000.0 nM
[24] = target: Serine/threonine-protein kinase TNNI3K (Homo sapiens) (UniProt Q59H18); conditions: Compound concentration 1000.0 nM
[25] = target: Calcium/calmodulin-dependent protein kinase type 1 (Homo sapiens) (UniProt Q14012); conditions: Compound concentration 1000.0 nM
[26] = target: Ephrin type-A receptor 6 (Homo sapiens) (UniProt Q9UF33); conditions: Compound concentration 1000.0 nM
[27] = target: Phosphatidylinositol 4-phosphate 5-kinase type-1 alpha (Homo sapiens) (UniProt Q99755); conditions: Compound concentration 1000.0 nM
[28] = target: Ribosomal protein S6 kinase beta-1 (Homo sapiens) (UniProt P23443); conditions: Compound concentration 1000.0 nM
[29] = target: Histamine H1 receptor (Homo sapiens) (UniProt P35367); conditions: Compound concentration 10.0 uM
[30] = target: Mitogen-activated protein kinase kinase kinase 6 (Homo sapiens) (UniProt O95382); conditions: Compound concentration 1000.0 nM
[31] = target: Misshapen-like kinase 1 (Homo sapiens) (UniProt Q8N4C8); conditions: Compound concentration 1000.0 nM
[32] = target: Tyrosine-protein kinase Yes (Homo sapiens) (UniProt P07947); conditions: Compound concentration 1000.0 nM
[33] = tested on: Mast/stem cell growth factor receptor Kit (Homo sapiens), P10721 [L576P]; conditions: Compound concentration 1000.0 nM
[34] = target: Mitogen-activated protein kinase 3 (Homo sapiens) (UniProt P27361); conditions: Compound concentration 1000.0 nM
[35] = target: Receptor-interacting serine/threonine-protein kinase 4 (Homo sapiens) (UniProt P57078); conditions: Compound concentration 1000.0 nM
[36] = target: Myotonin-protein kinase (Homo sapiens) (UniProt Q09013); conditions: Compound concentration 1000.0 nM
[37] = target: Dual specificity mitogen-activated protein kinase kinase 7 (Homo sapiens) (UniProt O14733); conditions: Compound concentration 1000.0 nM
[38] = target: Serine/threonine-protein kinase RIO3 (Homo sapiens) (UniProt O14730); conditions: Compound concentration 1000.0 nM
[39] = target: Cyclin-dependent kinase 11B (Homo sapiens) (UniProt P21127); conditions: Compound concentration 1000.0 nM
[40] = target: Interleukin-1 receptor-associated kinase 4 (Homo sapiens) (UniProt Q9NWZ3); conditions: Compound concentration 1000.0 nM
[41] = target: Protein kinase C iota type (Homo sapiens) (UniProt P41743); conditions: Compound concentration 1000.0 nM
[42] = target: Cyclin-G-associated kinase (Homo sapiens) (UniProt O14976); conditions: Compound concentration 1000.0 nM
[43] = target: cGMP-dependent protein kinase 1 (Homo sapiens) (UniProt Q13976); conditions: Compound concentration 1000.0 nM
[44] = tested on: Phosphatidylinositol 4,5-bisphosphate 3-kinase catalytic subunit alpha isoform (Homo sapiens), P42336 [H1047L]; conditions: Compound concentration 1000.0 nM
[45] = target: Mitogen-activated protein kinase kinase kinase 20 (Homo sapiens) (UniProt Q9NYL2); conditions: Compound concentration 1000.0 nM

Sequence of Misshapen-like kinase 1 (Homo sapiens) (Q8N4C8 whole entry, looked up): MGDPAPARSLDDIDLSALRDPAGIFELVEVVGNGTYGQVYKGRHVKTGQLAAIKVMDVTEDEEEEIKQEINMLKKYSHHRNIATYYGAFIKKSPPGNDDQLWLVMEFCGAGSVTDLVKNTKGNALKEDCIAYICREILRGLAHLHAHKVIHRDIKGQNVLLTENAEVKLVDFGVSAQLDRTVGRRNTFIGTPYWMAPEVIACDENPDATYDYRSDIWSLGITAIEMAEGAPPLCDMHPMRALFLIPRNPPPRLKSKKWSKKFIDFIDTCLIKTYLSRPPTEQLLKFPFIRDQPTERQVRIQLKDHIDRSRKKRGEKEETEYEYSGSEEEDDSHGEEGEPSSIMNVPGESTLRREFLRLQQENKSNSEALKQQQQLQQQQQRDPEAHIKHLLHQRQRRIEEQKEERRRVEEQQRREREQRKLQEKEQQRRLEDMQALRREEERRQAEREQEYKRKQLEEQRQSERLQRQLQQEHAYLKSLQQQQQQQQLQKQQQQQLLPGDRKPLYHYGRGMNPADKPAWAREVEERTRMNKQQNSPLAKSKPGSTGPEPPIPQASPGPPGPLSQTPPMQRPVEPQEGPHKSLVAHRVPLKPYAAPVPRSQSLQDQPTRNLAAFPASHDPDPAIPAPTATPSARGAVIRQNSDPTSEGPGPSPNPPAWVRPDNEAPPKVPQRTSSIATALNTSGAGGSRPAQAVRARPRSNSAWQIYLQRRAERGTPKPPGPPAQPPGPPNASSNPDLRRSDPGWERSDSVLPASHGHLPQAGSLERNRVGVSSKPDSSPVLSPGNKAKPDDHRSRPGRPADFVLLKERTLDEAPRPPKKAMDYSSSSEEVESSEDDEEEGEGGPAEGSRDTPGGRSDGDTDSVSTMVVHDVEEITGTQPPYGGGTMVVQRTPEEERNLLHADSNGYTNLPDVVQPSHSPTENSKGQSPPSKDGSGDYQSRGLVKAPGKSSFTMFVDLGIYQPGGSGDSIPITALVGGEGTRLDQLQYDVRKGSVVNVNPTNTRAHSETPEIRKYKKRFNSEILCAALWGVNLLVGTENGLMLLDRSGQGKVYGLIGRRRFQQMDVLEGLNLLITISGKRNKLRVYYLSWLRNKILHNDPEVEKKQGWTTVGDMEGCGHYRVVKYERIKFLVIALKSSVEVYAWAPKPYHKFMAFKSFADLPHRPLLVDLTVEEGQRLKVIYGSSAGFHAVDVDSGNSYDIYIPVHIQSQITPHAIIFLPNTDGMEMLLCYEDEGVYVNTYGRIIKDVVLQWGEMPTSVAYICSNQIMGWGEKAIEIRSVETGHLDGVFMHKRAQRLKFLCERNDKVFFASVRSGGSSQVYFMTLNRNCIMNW
Sequence of Histamine H1 receptor (Homo sapiens) (P35367 whole entry): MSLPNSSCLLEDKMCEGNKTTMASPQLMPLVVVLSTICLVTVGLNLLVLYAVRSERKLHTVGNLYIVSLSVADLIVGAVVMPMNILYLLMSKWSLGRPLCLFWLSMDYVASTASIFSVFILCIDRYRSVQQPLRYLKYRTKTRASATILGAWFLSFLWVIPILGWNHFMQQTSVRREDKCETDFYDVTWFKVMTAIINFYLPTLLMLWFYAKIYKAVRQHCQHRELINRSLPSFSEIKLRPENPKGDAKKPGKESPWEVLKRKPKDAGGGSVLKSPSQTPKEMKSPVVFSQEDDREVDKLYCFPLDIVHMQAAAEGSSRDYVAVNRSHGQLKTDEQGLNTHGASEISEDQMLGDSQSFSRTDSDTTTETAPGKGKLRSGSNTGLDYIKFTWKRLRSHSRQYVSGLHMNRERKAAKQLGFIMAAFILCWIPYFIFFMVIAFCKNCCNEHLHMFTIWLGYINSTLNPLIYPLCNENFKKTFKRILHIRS
Sequence of Interleukin-1 receptor-associated kinase 1 (Homo sapiens) (P51617 whole entry, looked up): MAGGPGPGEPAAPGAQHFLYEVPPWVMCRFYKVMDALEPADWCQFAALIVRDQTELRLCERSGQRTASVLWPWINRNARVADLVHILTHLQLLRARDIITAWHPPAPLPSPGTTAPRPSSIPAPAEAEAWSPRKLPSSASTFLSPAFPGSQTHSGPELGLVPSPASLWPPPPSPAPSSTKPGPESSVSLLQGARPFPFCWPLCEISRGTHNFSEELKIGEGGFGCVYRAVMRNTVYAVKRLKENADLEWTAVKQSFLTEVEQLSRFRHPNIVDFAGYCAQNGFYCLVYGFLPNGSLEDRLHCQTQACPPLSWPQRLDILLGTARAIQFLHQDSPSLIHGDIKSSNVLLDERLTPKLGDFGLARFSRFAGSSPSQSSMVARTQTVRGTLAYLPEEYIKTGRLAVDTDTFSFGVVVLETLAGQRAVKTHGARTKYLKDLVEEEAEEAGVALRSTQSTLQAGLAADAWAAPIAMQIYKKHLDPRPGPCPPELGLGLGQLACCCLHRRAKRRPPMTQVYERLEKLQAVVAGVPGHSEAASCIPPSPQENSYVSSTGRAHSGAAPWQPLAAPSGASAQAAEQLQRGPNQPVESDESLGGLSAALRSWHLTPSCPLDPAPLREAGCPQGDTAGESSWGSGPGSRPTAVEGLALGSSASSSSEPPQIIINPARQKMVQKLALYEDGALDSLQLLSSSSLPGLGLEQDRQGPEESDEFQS
Sequence of cGMP-dependent protein kinase 1 (Homo sapiens) (Q13976 whole entry, canonical isoform): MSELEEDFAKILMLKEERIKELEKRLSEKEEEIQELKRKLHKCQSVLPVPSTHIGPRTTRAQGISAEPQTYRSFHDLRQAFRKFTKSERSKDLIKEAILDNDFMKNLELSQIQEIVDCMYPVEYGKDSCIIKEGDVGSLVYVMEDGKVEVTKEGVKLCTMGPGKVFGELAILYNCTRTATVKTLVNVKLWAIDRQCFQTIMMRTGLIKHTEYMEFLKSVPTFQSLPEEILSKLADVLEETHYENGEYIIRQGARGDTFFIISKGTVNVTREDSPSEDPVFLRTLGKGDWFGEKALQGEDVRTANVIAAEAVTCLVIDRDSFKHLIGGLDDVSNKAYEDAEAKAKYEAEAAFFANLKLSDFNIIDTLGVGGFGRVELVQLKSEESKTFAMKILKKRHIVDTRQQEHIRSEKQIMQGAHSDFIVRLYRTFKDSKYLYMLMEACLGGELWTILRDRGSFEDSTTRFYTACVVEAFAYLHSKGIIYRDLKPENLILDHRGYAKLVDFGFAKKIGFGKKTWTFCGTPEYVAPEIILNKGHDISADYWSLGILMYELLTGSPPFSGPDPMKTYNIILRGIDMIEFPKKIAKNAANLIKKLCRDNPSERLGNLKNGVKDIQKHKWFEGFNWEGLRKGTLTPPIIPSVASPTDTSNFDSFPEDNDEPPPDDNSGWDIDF
Sequence of Receptor-interacting serine/threonine-protein kinase 4 (Homo sapiens) (P57078 whole entry): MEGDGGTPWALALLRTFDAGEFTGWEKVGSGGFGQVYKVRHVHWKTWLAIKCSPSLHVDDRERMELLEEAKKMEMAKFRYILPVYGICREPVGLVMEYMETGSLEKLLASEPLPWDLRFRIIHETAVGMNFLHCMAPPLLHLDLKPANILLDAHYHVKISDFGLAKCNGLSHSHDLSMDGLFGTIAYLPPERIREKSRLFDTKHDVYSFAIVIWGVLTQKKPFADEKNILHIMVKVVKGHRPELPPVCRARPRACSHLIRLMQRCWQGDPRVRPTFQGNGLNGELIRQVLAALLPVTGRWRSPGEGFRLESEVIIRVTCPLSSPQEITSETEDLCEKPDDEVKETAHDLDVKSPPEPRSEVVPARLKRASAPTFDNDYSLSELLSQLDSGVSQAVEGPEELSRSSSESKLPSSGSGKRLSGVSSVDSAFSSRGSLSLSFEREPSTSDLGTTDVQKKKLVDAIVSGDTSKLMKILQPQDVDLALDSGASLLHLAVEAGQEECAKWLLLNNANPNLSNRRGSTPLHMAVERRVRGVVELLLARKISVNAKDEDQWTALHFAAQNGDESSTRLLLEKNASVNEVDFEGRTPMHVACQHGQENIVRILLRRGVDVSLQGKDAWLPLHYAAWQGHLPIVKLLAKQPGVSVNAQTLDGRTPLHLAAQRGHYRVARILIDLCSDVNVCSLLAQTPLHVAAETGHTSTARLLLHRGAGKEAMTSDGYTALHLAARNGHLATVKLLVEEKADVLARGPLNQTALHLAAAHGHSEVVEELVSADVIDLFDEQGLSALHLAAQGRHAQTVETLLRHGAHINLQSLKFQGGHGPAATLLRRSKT
Sequence of Cyclin-dependent kinase-like 5 (Homo sapiens) (O76039 whole entry): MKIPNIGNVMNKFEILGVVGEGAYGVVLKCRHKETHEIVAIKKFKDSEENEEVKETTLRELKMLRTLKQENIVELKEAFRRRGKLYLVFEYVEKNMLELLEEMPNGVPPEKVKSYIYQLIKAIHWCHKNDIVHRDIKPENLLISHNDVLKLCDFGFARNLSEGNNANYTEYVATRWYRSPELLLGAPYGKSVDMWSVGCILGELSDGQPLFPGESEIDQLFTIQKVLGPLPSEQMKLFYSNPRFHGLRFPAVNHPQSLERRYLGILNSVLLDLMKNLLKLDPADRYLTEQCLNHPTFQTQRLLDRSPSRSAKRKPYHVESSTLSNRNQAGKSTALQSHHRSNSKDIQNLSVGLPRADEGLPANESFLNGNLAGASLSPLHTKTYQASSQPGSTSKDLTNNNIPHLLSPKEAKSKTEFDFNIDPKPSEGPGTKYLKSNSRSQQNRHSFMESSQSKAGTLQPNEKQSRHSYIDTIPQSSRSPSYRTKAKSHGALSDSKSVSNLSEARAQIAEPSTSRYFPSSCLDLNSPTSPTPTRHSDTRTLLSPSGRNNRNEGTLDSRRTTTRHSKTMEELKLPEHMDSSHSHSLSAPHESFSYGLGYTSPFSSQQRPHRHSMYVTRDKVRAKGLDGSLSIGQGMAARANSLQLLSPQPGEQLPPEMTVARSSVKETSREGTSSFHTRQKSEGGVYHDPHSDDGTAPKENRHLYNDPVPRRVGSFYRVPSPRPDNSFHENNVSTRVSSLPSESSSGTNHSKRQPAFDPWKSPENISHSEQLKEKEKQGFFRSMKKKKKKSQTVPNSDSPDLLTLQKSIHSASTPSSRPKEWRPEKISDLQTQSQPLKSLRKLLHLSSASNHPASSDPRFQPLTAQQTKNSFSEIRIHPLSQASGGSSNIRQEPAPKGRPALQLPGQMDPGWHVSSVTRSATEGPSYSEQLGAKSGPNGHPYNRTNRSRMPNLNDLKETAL

C[C@H](c1ccc(F)cc1)N(Cc1cccc(C(=O)O)c1)C(=O)c1cnc2ccccc2c1 [PF-05105679]
residual activity [1]: 100% | residual activity [2]: 89% | residual activity [3]: 100% | residual activity [4]: 100% | residual activity [5]: 100% | residual activity [6]: 100% | residual activity [7]: 92% | residual activity [8]: 96% | residual activity [9]: 76% | residual activity [10]: 82% | residual activity [11]: 99% | residual activity [12]: 100% | residual activity [13]: 100% | IC50 [14]: 13.8 nM (active) | residual activity [15]: 100% | residual activity [16]: 95% | residual activity [17]: 95% | residual activity [18]: 100% | residual activity [19]: 100% | inhibition [20]: 18% | residual activity [21]: 85% | inhibition [22]: -1.14% | residual activity [23]: 96% | residual activity [24]: 97% | residual activity [25]: 100% | residual activity [26]: 100% | residual activity [27]: 100% | residual activity [28]: 100% | inhibition [29]: 22.9% | residual activity [30]: 84% | residual activity [31]: 100% | residual activity [32]: 100% | residual activity [33]: 94% | residual activity [34]: 100% | residual activity [35]: 100% | residual activity [36]: 88% | residual activity [37]: 100% | residual activity [38]: 86% | residual activity [39]: 84% | residual activity [40]: 95% | residual activity [41]: 100% | residual activity [42]: 98% | residual activity [43]: 100% | residual activity [44]: 100% | residual activity [45]: 100%
